Laboratory results: ChEMBL document CHEMBL1126299, “Synthesis and structure-activity relationships of cephalosporins with C-3' catechol-containing residues” (J Med Chem, 1992)
≈ marks a conversion by molar mass, not a printed value.

Assays:
[1] = The compound was evaluated for area under the curve in marmosets; assay type: ADME; settings: callithrix, in vivo
[2] = The half life period in marmosets; assay type: ADME; settings: callithrix, in vivo
[3] = target: Beta-lactamase TEM (Escherichia coli) (UniProt P62593); assay: The dissociation constant of compound was tested for beta-Lactamase stability
Enterobacter cloacae [4] = assay: The compound was tested for minimum inhibitory concentration in Enterobacter cloacae, DR 401108 constitutive depressed type 1 lactamase producer; assay type: functional
Homo sapiens = species: Homo sapiens; assay: Compound is evaluated for serum protein binding in human blood (protein binding in marmoset blood); assay type: functional
[5] = The compound was tested for % urinary recovery in marmosets at the dose of 3 mg/kg; assay type: ADME, organism-based; design: dose 3 mg/kg; settings: callithrix, urine, read-out: Recovery
Citrobacter freundii [6] = assay: microbe, parasite or virus in culture
Description: Minimum inhibitory concentration in Citrobacter freundii, DR 382031 constitutive depressed type 1

Citrobacter freundii [7] = assay: microbe, parasite or virus in culture; remark: listed apart in the source
Description: Minimum inhibitory concentration in Citrobacter freundii, I+382010 inducible type 1 lactamase producer

Enterobacter cloacae [8] = assay: microbe, parasite or virus in culture
Description: Minimum inhibitory concentration in Enterobacter cloacae, P99+ constitutive depressed type 1 lactamase producer

Enterobacter cloacae [9] = assay: microbe, parasite or virus in culture; remark: listed apart in the source
Description: Minimum inhibitory concentration in Enterobacter cloacae, I+401029 inducible type 1 lactamase producer

Enterobacter cloacae [10] = assay: microbe, parasite or virus in culture; remark: listed apart in the source
Description: Minimum inhibitory concentration in Enterobacter cloacae, P99- inducible type 1 lactamase producer

Pseudomonas aeruginosa [11] = assay: microbe, parasite or virus in culture
Description: Minimum inhibitory concentration in Pseudomonas aeruginosa, 18S inducible type 1 lactamase producer

Pseudomonas aeruginosa [12] = assay: microbe, parasite or virus in culture; remark: listed apart in the source
Description: Minimum inhibitory concentration in Pseudomonas aeruginosa, 18SH constitutive depressed type 1 lactamase producer

Pseudomonas aeruginosa [13] = assay: microbe, parasite or virus in culture; remark: listed apart in the source
Description: Minimum inhibitory concentration in Pseudomonas aeruginosa,799WT parent organism

Providencia stuartii [14] = assay: microbe, parasite or virus in culture
Description: Minimum inhibitory concentration in Pseudomonas stuartii, DR 442049 constitutive depressed type 1 lactamase producer

Providencia stuartii [15] = assay: microbe, parasite or virus in culture; remark: listed apart in the source
Description: Minimum inhibitory concentration in Pseudomonas stuartii, I+442019 inducible type 1 lactamase producer

Pseudomonas aeruginosa [16] = assay: microbe, parasite or virus in culture; remark: listed apart in the source
Description: Minimum inhibitory concentration in Pseudomonas aeruginosa,799/61 permeability mutant

Citrobacter freundii [17] = assay: The compound was tested for minimum inhibitory concentration in Citrobacter freundii, DR 382031 constitutive depressed type 1; assay type: functional
Citrobacter freundii [18] = assay: The compound was tested for minimum inhibitory concentration in Citrobacter freundii,I+382010 inducible type 1 lactamase producer; assay type: functional
Enterobacter cloacae [19] = assay: The compound was tested for minimum inhibitory concentration in Enterobacter cloacae,I+401029 inducible type 1 lactamase producer; assay type: functional
Pseudomonas aeruginosa [20] = assay: The compound was tested for minimum inhibitory concentration in Pseudomonas aeruginosa,799/61 permeability mutant; assay type: functional
Pseudomonas aeruginosa [21] = assay: The compound was tested for minimum inhibitory concentration in Pseudomonas aeruginosa,799WT parent organism; assay type: functional
Providencia stuartii [22] = assay: The compound was tested for minimum inhibitory concentration in Pseudomonas stuartii,I+442019 inducible type 1 lactamase producer; assay type: functional
Enterobacter cloacae [23] = assay: microbe, parasite or virus in culture; remark: listed apart in the source
Description: Minimum inhibitory concentration in Enterobacter cloacae, DR 401108 constitutive depressed type 1 lactamase producer

Beta-lactamase TEM (Escherichia coli), sequence (P62593 whole entry): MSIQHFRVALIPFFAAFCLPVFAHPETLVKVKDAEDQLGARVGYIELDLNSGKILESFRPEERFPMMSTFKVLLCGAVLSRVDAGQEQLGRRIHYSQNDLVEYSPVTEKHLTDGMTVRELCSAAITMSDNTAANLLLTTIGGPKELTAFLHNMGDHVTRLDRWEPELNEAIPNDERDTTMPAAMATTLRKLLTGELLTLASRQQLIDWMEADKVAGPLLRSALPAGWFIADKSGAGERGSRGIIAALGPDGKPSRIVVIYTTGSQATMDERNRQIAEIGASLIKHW

Work on CC(C)(O/N=C(\C(=O)N[C@@H]1C(=O)N2C(C(=O)O)=C(CNC(=O)c3cc(Cl)c(O)c(O)c3Cl)CSC12)c1csc(N)n1)C(=O)O (some centres undefined) yielded an AUC [1] of 461 mg/h/L, a half-life [2] of 8.22 h and a pKa [3] of 6.3. For the same compound, the MIC (Enterobacter cloacae [4]) was 4 µg/mL (≈ 5.8 µM), the Activity (Homo sapiens) was 98.7% and the dose excreted [5] was 16.2%. The MIC (Citrobacter freundii [6]) was 2 µg/mL (≈ 2.9 µM), the MIC (Citrobacter freundii [7]) was 0.008 µg/mL (≈ 0.0116 µM) and the MIC (Enterobacter cloacae [8]) was 4 µg/mL (≈ 5.8 µM). It also gave an MIC (Enterobacter cloacae [9]) of 0.008 µg/mL (≈ 0.0116 µM), an MIC (Enterobacter cloacae [10]) of 0.03 µg/mL (≈ 0.0435 µM) and an MIC (Pseudomonas aeruginosa [11]) of 0.008 µg/mL (≈ 0.0116 µM). For the same compound, the MIC (Pseudomonas aeruginosa [12]) was 0.015 µg/mL (≈ 0.0218 µM), the MIC (Pseudomonas aeruginosa [13]) was 0.008 µg/mL (≈ 0.0116 µM) and the MIC (Providencia stuartii [14]) was 1 µg/mL (≈ 1.45 µM). For the same compound, the MIC (Providencia stuartii [15]) was 0.06 µg/mL (≈ 0.087 µM) and the MIC (Pseudomonas aeruginosa [16]) was 0.008 µg/mL (≈ 0.0116 µM).

With CC(C)(O/N=C(\C(=O)N[C@@H]1C(=O)N2C(C(=O)O)=C(CNC(=O)c3cnc4cc(O)c(O)cc4c3O)CSC12)c1csc(N)n1)C(=O)O (some centres undefined) the MIC (Citrobacter freundii [17]) was 0.125 µg/mL (≈ 0.182 µM), the MIC (Citrobacter freundii [18]) was 0.008 µg/mL (≈ 0.0116 µM) and the MIC (Enterobacter cloacae [19]) was 0.03 µg/mL (≈ 0.0436 µM). It also gave an MIC (Pseudomonas aeruginosa [20]) of 0.008 µg/mL (≈ 0.0116 µM), an MIC (Pseudomonas aeruginosa [21]) of 0.008 µg/mL (≈ 0.0116 µM) and an MIC (Providencia stuartii [22]) of 0.03 µg/mL (≈ 0.0436 µM). The MIC (Enterobacter cloacae [23]) was 1 µg/mL (≈ 1.45 µM), the MIC (Enterobacter cloacae [8]) was 0.06 µg/mL (≈ 0.0873 µM) and the MIC (Enterobacter cloacae [10]) was 0.03 µg/mL (≈ 0.0436 µM). For the same compound, the MIC (Pseudomonas aeruginosa [11]) was 0.008 µg/mL (≈ 0.0116 µM), the MIC (Pseudomonas aeruginosa [12]) was 0.008 µg/mL (≈ 0.0116 µM) and the MIC (Providencia stuartii [14]) was 2 µg/mL (≈ 2.91 µM).
